According to patent US5811445A, “Method of preventing abnormal stimulation of AT1 and AT2 receptors” (Roussel Uclaf, priority 1994, dated 1998):
Read-outs that look alike come from different tables or passages of the source.

Columns and labels:
[1] = tested on: angiotensin II (pressure effects); test: Test for antagonistic activity of angiotensin II in the demedullated rat; assay type: in vivo, Male Sprague-Dawley rats; details: PO, inhibition of pressure effects of angiotensin II (0.75 micrograms/kg), read-out: ID50 PO
[2] = molecular target: T1, AT1 receptor of angiotensin II (Rattus norvegicus, UniProt P25095); test: Test on the AT1 receptor of angiotensin II (displacement of 125I angiotensin II, rat liver membranes); assay type: binding
T1 construct: A fresh membrane preparation obtained from rat's liver is used; from tissue; host or cells: rat liver membranes
T1 sequence (P25095 1-359): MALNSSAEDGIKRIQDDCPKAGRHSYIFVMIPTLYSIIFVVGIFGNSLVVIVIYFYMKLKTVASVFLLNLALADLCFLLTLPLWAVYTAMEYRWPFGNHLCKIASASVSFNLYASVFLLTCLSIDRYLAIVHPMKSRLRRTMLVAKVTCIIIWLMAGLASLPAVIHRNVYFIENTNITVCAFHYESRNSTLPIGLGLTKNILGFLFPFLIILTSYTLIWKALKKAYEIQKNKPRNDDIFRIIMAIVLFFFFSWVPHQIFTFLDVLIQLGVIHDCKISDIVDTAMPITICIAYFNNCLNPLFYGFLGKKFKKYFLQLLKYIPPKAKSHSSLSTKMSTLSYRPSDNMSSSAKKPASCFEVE
Description: 1 - Test on the AT1 -receptor of angiotensin II
A fresh membrane preparation obtained from rat's liver is used. The tissue is ground up in a polytron in a 50 mM Tris buffer pH 7.4, the grinding is followed by 3 centrifugations at 30,000 g for 15 minutes with intermediate take up of the pellets in the Tris buffer pH 7.4.
(§1) (The product is first tested with 3×10^-5 M three times). When the tested product displaces more than 50% of the radioactivity specifically bound to the receptor, it is tested again according to a range of 7 concentrations in order to determine the concentration which inhibits by 50% the radioactivity specifically bound to the receptor. In this way the 50% inhibitory concentration is determined).
(§2) After incubation at 25° C. for 150 minutes, placing in a water-bath at 0° C. for 5 minutes, filtration under vacuum, and rinsing with Tris buffer pH 7.4, the radioactivity is counted in the presence of a scintillating solid.

[3] = molecular target: T2, AT2 receptor of angiotensin II (Oryctolagus cuniculus, UniProt G1T351); test: Test on the AT2 receptor of angiotensin II (displacement of 125I angiotensin II, rabbit uterus membranes); assay type: binding
T2 construct: A fresh membrane preparation obtained from rabbit's uterus is used; from tissue; host or cells: uterus membranes of estradiol-treated rabbits
T2 sequence (G1T351 1-363): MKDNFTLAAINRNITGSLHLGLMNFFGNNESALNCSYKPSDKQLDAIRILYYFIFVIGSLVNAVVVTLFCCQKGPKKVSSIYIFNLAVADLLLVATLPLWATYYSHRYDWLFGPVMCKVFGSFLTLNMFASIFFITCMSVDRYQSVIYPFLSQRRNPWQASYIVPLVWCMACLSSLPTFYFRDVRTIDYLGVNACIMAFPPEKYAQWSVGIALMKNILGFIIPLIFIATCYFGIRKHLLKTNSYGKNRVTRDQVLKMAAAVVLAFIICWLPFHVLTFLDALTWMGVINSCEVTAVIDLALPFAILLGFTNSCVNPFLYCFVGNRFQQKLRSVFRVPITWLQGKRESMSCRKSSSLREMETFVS
Description: 2) Test on the AT2 receptor of angiotensin II
The tissue is ground up in a polytron in a 50 mM Tris buffer pH 7.4, and the grinding is followed by 3 centrifugations at 30,000 g for 15 minutes, with intermediate take up of the pellets in the Tris buffer pH 7.4.
The homogenate obtained is preincubated for 20 minutes at 25° C. in the presence of 10 mM dithiothreitol, then brought back to 0°-4° C.
as §1, with “The” for “(The”, “at 3.10^-5” for “with 3×10^-5”, “times.” for “times).”, “determined.” for “determined).”
as §2

[4] = tested on: angiotensin II (pressure effects); test: Test for antagonistic activity of angiotensin II in the demedullated rat; assay type: in vivo, Male Sprague-Dawley rats; details: IV, inhibition of pressure effects of angiotensin II (0.75 micrograms/kg), read-out: ID50 IV
Description: 3 - Test for antagonistic activity of angiotensin II in the demedullated rat
Male Sprague-Dawley rats (250 to 350 g) are anaesthetized by an intraperitoneal injection with sodium pentobarbital (60 mg/kg). The diastolic arterial pressure is recorded by means of a heparin catheter (PE50) introduced into the left carotid of the animal, and connected to a pressure processor (Gould, Pressure Processor) via a Gould pressure sensor.
A catheter is introduced into the right jugular vein of the animal in order to allow injection of the molecules being studied.
The animal is placed under assisted respiration. A bilateral section of the vagus nerves is carried out. The rat is then demedullated.
After a sufficient stabilization period, study of the antagonism of the molecules vis-a-vis angiotensin II (Hypertensin, CIBA) is carried out in the following manner:
1 - Three consecutive injections of angiotensin II (0.75 micrograms/kg) 15 minutes apart allow a reproducible and stable pressure response to be obtained.
2 - While maintaining a periodicity of 15 minutes for the administration of angiotensin II, the molecules (0.01 to 10 mg/kg) are injected 5 minutes before the angiotensin II.
The pressure effects of angiotensin II in the presence of the antagonist are expressed as a percentage of the pressure effects of angiotensin II administered alone. The 50% inhibitory dose (ID50) of the effect studied is thus determined.
Each animal is considered as its own control.

[5] = rat liver membrane, 125I angiotensin II, 25° C., 150 minutes, read-out: AT1 Receptor IC50
[6] = rabbit uterus membrane (estradiol pre-treated), 125I angiotensin II, 25° C., 150 minutes, read-out: AT2 Receptor IC50

| Structure (SMILES) | ED50 [1] [mg/kg] | IC50 [2, 5] [nM] | IC50 [3, 6] [nM] | ED50 [4] [mg/kg] | IC50 ([2]; products P1 to P13, expressed in nM, read-out: On AT1 receptor IC50) [nM] | IC50 ([3]; products P1 to P13, expressed in nM, read-out: On AT2 receptor IC50) [nM] |
| --- | --- | --- | --- | --- | --- | --- |
| CCCc1nc(SC)c(C(=O)O)n1Cc1ccc(-c2ccccc2S(=O)(=O)NC(=O)NCC2CCCCC2)cc1 [Example 23, sodium 1-((2'-(((((cyclohexylmethyl)amino)carbonyl)amino)sulphonyl) (1,1'-biphenyl) 4-yl)methyl] 4-(methylthio) 2-propyl 1H-imidazole 5-carboxylate] | 1.54 | 0.2 | 2 | 0.3 | – | – |
| CCCCc1nc(SC)c(C(C)(O)C(=O)O)n1Cc1ccc(-c2ccccc2S(=O)(=O)NC(=O)OCc2ccccc2)cc1 (stereo not drawn) [Example 7, 2-butyl alpha-hydroxy alpha-methyl 4-(methylthio) 1-[(2'-((((phenylmethoxy)carbonyl)amino)sulphonyl) (1,1'-biphenyl) 4-yl)methyl] 1H-imidazole 5-acetic acid] | – | 0.7 | 5.2 | 0.6 | – | – |
| CCCc1nc(SC(F)F)c(C(=O)O)n1Cc1ccc(-c2ccccc2S(=O)(=O)NC(=O)NCCc2ccccc2)cc1 [Example 48] | – | – | – | 0.64 | – | – |
| CCCCc1nc(SC)c(C(=O)O)n1Cc1ccc(-c2ccccc2S(=O)(=O)NC(=O)NCC2CCCCC2)cc1 [Example 75, 2-butyl 1-((2'-(((((cyclohexylmethyl)amino)carbonyl)amino)sulphonyl) (1,1'-biphenyl) 4-yl)methyl) 4-(methylthio) 1H-imidazole 5-carboxylic acid] | – | 0.05 | – | 0.35 | 0.23 | 17 |
| CCCCc1nc(SC)c(C(=O)O)n1Cc1ccc(-c2ccccc2S(=O)(=O)NC(=O)C(c2ccccc2)c2ccccc2)cc1 [Example 30, 2-butyl 1-[(2'-(((diphenylacetyl)amino)sulphonyl) (1,1'-biphenyl) 4-yl)methyl] 4-(methylthio) 1H-imidazole 5-carboxylic acid] | – | – | – | 0.93 | – | – |
| CCCc1nc(SC(F)F)c(C(=O)O)n1Cc1ccc(-c2ccccc2S(=O)(=O)NC(=O)NCc2cccs2)cc1 [Example 50, 4-((difluoromethyl)thio) 2-propyl 1-((2'-(((((2-thienylmethyl)amino)carbonyl)amino)sulphonyl) (1,1'-biphenyl) 4-yl)methyl) 1H-imidazole 5-carboxylic acid] | – | 0.06 | 7.4 | 0.13 | – | – |
| CCCc1nc(SC(F)F)c(C(=O)O)n1Cc1ccc(-c2ccccc2S(=O)(=O)NC(=O)NCC2CCCCC2)cc1 [Example 45, 1-((2'-(((((cyclohexylmethyl)amino)carbonyl)amino)sulphonyl) (1,1'-biphenyl 4-yl)methyl) 4-(difluoromethyl)thio) 2-propyl 1H-imidazole 5-carboxylic acid] | 1.1 | 0.07 | 1.7 | 0.22 | – | – |
| CCCc1nc(SC(F)F)c(C(=O)O)n1Cc1ccc(-c2ccccc2S(=O)(=O)NC(=O)NCc2ccccc2)cc1 [Example 46, 4-((difluoromethyl)thio) 1-((2'-(((((phenylmethyl)amino)carbonyl)amino)sulphonyl) (1,1'-biphenyl) 4-yl)methyl) 2-propyl 1H-imidazole 5-carboxylic acid] | 2 | 0.11 | 0.26 | 0.26 | – | – |
| CCCc1nc(SC)c(C(=O)O)n1Cc1ccc(-c2ccccc2S(=O)(=O)NC(=O)NCc2ccccc2)cc1 [Example 25, 4-(methylthio) 1-[(2'-(((((phenylmethyl)amino)carbonyl)amino)sulphonyl) (1,1'-biphenyl) 4-yl)methyl] 2-propyl 1H-imidazole 5-carboxylic acid] | 1.45 | 0.2 | 5.9 | 0.22 | – | – |
| CCCCc1nc(SC)c(C(N)=O)n1Cc1ccc(-c2ccccc2S(=O)(=O)NC(=O)NCCC)cc1 [Example 35, 2-butyl 4-(methylthio) 1-((2'-((((propylamino)carbonyl)amino)sulphonyl) (1,1'-biphenyl) 4-yl)methyl) 1H-imidazole 5-carboxamide] | – | – | – | 0.05 | – | – |
| CCCc1nc(SC(F)F)c(C(=O)O)n1Cc1ccc(-c2ccccc2S(=O)(=O)NC(=O)NCCc2cccs2)cc1 [Example 47] | 3 | 0.03 | – | 0.33 | – | – |
| CCCCC(O)(C(=O)O)c1c(SC)nc(CCC)n1Cc1ccc(-c2ccccc2S(=O)(=O)NC(=O)NCc2ccccc2)cc1 (stereo not drawn) [Example 32, sodium alpha-butyl alpha-hydroxy 4-(methylthio) 1-[(2'-(((((phenylmethyl)amino)carbonyl)amino)sulphonyl) (1,1'-biphenyl) 4-yl)methyl] 2-propyl 1H-imidazole 5-acetate] | – | 0.5 | 0.8 | 0.46 | – | – |
| CCCCc1nc(SC)c(C(C)(O)C(=O)O)n1Cc1ccc(-c2ccccc2S(=O)(=O)NC(=O)NCC2CCCCC2)cc1 (stereo not drawn) [Example 13, 2-butyl 1-[(2'-(((((cyclohexylmethyl)amino)arbonyl)amino)sulphonyl) (1,1'-biphenyl) 4-yl)methyl] alpha-hydroxy alpha-methyl 4-(methylthio) 1H-imidazole 5-acetic acid] | – | 6.3 | 1.9 | – | – | – |
| CCCc1nc(SC)c(C(O)C(=O)O)n1Cc1ccc(-c2ccccc2S(=O)(=O)NC(=O)NCc2ccccc2)cc1 (centres unmarked) [Example 21] | – | 2.5 | 6.5 | – | – | – |
| CCCc1nc(SC)c(C(=O)O)n1Cc1ccc(-c2ccccc2S(=O)(=O)NC(=O)Nc2ccccc2)cc1 [Example 62, 4-(methylthio) 1-((2'-((((phenylamino)carbonyl)amino)sulphonyl) (1,1'-biphenyl) 4-yl)methyl) 2-propyl 1H-imidazole 5-carboxylic acid] | – | – | – | 0.52 | – | – |
| CCCCc1nc(SC)c(C(O)CC(=O)O)n1Cc1ccc(-c2ccccc2S(=O)(=O)NC(=O)NCc2ccccc2)cc1 (stereo not drawn) [Example 65, 2-butyl beta-hydroxy 4-(methylthio) 1-((2'-(((((phenylmethyl)amino)carbonyl)amino)sulphonyl) (1,1'-biphenyl) 4-yl)methyl) 1H-imidazole 5-propionic acid] | – | – | – | 0.05 | – | – |
